Measurements from patent US20140039044A1, “Hydroxylated Polymethoxyflavone Compositions” (WLLGEN, INC., priority 2006, published 2014).
Where two headings read alike, the source gives them in different places.

What was measured:
Format in all cases: cell-based, human
[1] = test system: calpain; assay: Calpain activity assay (fluorogenic substrate, immunofluorescence); conditions: MCF-7 cells; for Calpain activation, in words: day 3 or 6, FIG. 12A, 13A,B
Protocol: (§1) Calpain and caspase-12 activities were measured with the cell-permeable fluorogenic peptide substrates t-Boc-Leu-Met-CMAC (50 μM; CMAC, 7-amino-4-chloromethyl coumarin; Molecular Probes) and Ala-Thr-Ala-Asp-AFC (50 μM; AFC, 7-amino-4-trifluoromethyl coumarin; Caspase-12 Fluorometric Assay Kit, BioVision), respectively. See, e.g., Roser and Gores (2000) Meth. Mol. Biol. 144:2452-2466. Polyclonal antibodies directed against caspase-12 (BioVision) and monoclonal antibodies directed against the calpain small (cleaved) subunit (Chemicon) were used to evaluate activation of these proteases. For immunofluorescence labeling, the fixed and permeabilized cell preparations were pre-incubated with non-specific serum for 20 min, incubated for 1 h at 37° C. or overnight at 4° C. with the primary antibodies and 1 h at room temperature with secondary antibodies using ALEXA FLUOR-488 signal-amplification mouse antibodies (Molecular Probes) and FITC- or Texas Red-conjugated anti-rabbit and anti-mouse IgG (Molecular Probes). Fluorescence microscopy was carried out as described above for Ca^2+ imaging. Image analysis and measurement of fluorescence intensity was performed using MetaMorph 6.3 software (Molecular Devices/Universal Imaging), as described previously in Sergeev (1996) Endocrine 5: 335-340.

[2] = test system: MCF-7 breast cancer cells; assay: Cell death by propidium iodide uptake; conditions: MCF-7 cells; for Cell death (propidium iodide), in words: evident at day 6, FIG. 9
Protocol: (§2) MCF-7 cells were maintained and assayed as described in Section 8.4 above. Apoptosis was evaluated by the plasma membrane and nuclear changes as previously described in Sergeev (2004) J. Steroid Biochem. Mol. Biol. 89-90:419-425. Briefly, An Annexin V assay (ALEXA FLUOR 488 Annexin V Assay Kit; Molecular Probes) was used for detection of the apoptotic plasma membrane (loss of membrane asymmetry due to phosphatidylserine translocation). Fluorescence (485 nm excitation, 530 nm emission) of the Annexin V-abeled cells grown in 96-well plates was measured in the FLx800 plate reader with KC software (BioTek) and expressed in fluorescence units per 1×10^3 cells. Propidium iodide uptake was used to evaluate non-apoptotic and apoptotic cell death (the dye permeates plasma membrane and stain nucleic acids of both necrotic and the late apoptotic cells). Fluorescence (530 nm excitation, 620 nm emission) of the propidium iodide-labeled cells was also measured in the FLx800 reader. Additionally, HOECHST 33342 and ALEXA FLUOR 488 Annexin V were employed to visualize apoptotic nuclei (nuclear fragmentation) and the apoptotic plasma membrane, respectively. Fluorescence microscopy of HOECHST 33342- and Annexin V-labeled cells was performed as described below for the cellular Ca^2+ and immunofluorescence imaging.

[3] = test system: MCF-7 breast cancer cells; assay: Apoptosis assay (Annexin V, Hoechst 33342); conditions: MCF-7 cells; for Apoptosis by morphological criteria (nuclear fragmentation): Hoechst 33342
Protocol: as §2

[4] = test system: caspase-12; assay: Caspase-12 activity assay (fluorogenic substrate, immunofluorescence); conditions: MCF-7 cells, day 3 or 6, FIG. 12B, 13C,D
Protocol: as §1

[5] = test system: MCF-7 breast cancer cells; assay: Cell growth inhibition (cell number, total nucleic acid content); conditions: for IC50: MCF-7 cells, average of the day 3 and day 6 determinations, read-out: Inhibition of cell proliferation (IC50); for Inhibition of proliferation, in words: MCF-7 cells, 1, 3 or 6 days, FIG. 7
Protocol: Human colon carcinoma COLO205 and HT-29 cell lines (American Type Culture Collection (ATTC), Manassas, Va.) and the leukemia cell line HL-60 were maintained at 37° C. in 5% CO2 air in RPMI 1640 medium supplemented with 10% heat-inactivated fetal bovine serum (Gibco BRL, Grand Island, N.Y.), 100 units/mL penicillin, 100 μg/mL streptomycin and 2 mM 1-glutamine. The human gastric carcinoma AGS cell line (CCRC 60102), obtained from the Food Industry Research and Development Institute (Hsinchu, Taiwan), was maintained as described above, except that DMEM/F 12 was used as the medium rather than the RPMI 1640 medium. The human breast carcinoma MCF-7 cell line MCF-7 (ATTC) was cultured in RPMI 1640 medium supplemented with 5% fetal calf serum at 37° C. in a humidified atmosphere of 5% CO2 in air. The mouse macrophage cell line RAW 264.7 was maintained in RPMI 1640 supplemented with 100 U/ml penicillin, 100 μg/ml streptomycin, and 10% heat-inactivated fetal calf serum.
Cancer cells (2×10^5) were plated in 12-well Petri dishes. The next day, the medium was changed and treated with different concentration of the test compounds or compositions for 24 h. Where individual compounds were to be tested, stock solutions of the compound was prepared to contain 200 μM of the individual hydroxylated or non-hydroxylated PMF in dimethylsulfoxide (DMSO). Control cells were treated with DMSO to a final concentration of 0.05% (v/v). Depending on the objective of the particular experiment, cells were treating with test compound or composition for 1, 3 or 6 days. At the end of incubation, cells were harvested for cell count using a hemocytometer and measuring the cellular total nucleic acid content with the CyQUANT Cell Proliferation Assay Kit (Molecular Probes).
FIG. 7 presents cell number data, where cell numbers of cells treated to PMFs are presented as a percentage of control cells. The IC50 values for inhibition of cell proliferation are presented in Table 15 in which the concentration inhibiting cell growth by 50%, IC50, is presented as the average of the day 3 and day 6 determinations. The apparent minimal effective concentrations, ECmin, for induction of cell death, apoptosis, and increase in [Ca^2+]i are also indicated.

[6] = test system: [Ca^2+]i in MCF-7 cells; assay: Intracellular calcium measurement (fluo-3); conditions: for Basal level of [Ca^2+]i, in words: fluo-3/AM, day 3 and 6, dose-dependent; for Intracellular Ca^2+ levels, in words: 50-100 μM, day 6
Protocol: Concentration of intracellular free Ca^2+ ([Ca^2+]i) was measured with Ca^2+ indicators fura-2 and fluo-3, as described in detail previously, for example, in Sergeev (2004) J. Steroid Biochem. Mol. Biol. 89-90:419-425. For [Ca^2+]i measurements with fluo-3, cells grown in the 96-well, black-wall plates were loaded with 2 μM of fluo-3/AM (Molecular Probes) in Dulbecco's PBS (D-PBS) supplemented with 0.1% DMSO for 40 min at 37° C. Fluorescence (485 nm excitation, 530 nm emission) was measured in the FLx800 plate reader, as described above. For [Ca^2+]i measurements with fura-2, cells grown on coverslips were loaded with 1 μM of fura-2/AM (Molecular Probes) in D-PBS supplemented with 0.1% DMSO and 0.01% Pluronic F-127 for 40 min at 37° C. The dynamics of intracellular Ca^2+ was assessed with cells in the microincubation chamber (37.0±0.2° C.) on a NIKON ECLIPSE TE-300 inverted microscope equipped for epifluorescence, ratiometric, digital imaging. The images were captured using SUPERFLUOR 40× 1.3 NA oil-immersion objective (Nikon) and COOLSNAPFX digital CCD camera (Photometrics), ratioed (340/380 nm excitation, 510 nm emission) on a pixel-by-pixel basis, and stored for analysis. Image analysis was performed using METAFLUOR 6.3 software (Molecular Devices/Universal Imaging).

[7] = day 3 and 6 of treatment, dose-dependent

| SMILES | Calpain activation, in words [1] | Induction of cell death (ECmin, apparent minimal effective concentration) [2] | Cell death (propidium iodide), in words [2] | Induction of cell apoptosis (ECmin, apparent minimal effective concentration) [3] | Apoptosis by morphological criteria (nuclear fragmentation) [3] | Induction of apoptosis (Annexin V), in words [3, 7] | Caspase-12 activation, in words [4] | IC50 ([5]; Homo sapiens, MCF7) | Inhibition of proliferation, in words [5] | Increase in [Ca^2+]i (ECmin, apparent minimal effective concentration) [6] | Basal level of [Ca^2+]i, in words [6] | Induction of apoptosis (Annexin V), in words ([3]; 50-100 μM, day 6 of treatment) | Intracellular Ca^2+ levels, in words [6] | Number of cells with activated calpain, in words ([1]; day 3 of treatment) | Proapoptotic activity (Annexin V), in words ([3]; 25-100 μM, day 6 of treatment) | IC50 [5] |
| --- | --- | --- | --- | --- | --- | --- | --- | --- | --- | --- | --- | --- | --- | --- | --- | --- |
| COc1ccc(-c2cc(=O)c3c(OC)c(OC)c(OC)cc3o2)cc1O [Compound 5, 3′-hydroxy-5,6,7,4′-tetramethoxyflavone] | activation | 6.25 µM | induced death of MCF-7 breast cancer cells | 3.125 µM | confirmed apoptosis | induced apoptosis | activation | 10.5 µM | inhibited proliferation of MCF-7 breast cancer cells in a dose- and time-dependent fashion | 3.125 µM | induced an increase in the basal level of [Ca^2+]i |  |  |  |  |  |
| COc1ccc(-c2cc(=O)c3c(OC)c(OC)c(OC)cc3o2)cc1OC [Compound 7, 5,6,7,3′,4′-pentamethoxyflavone, reference compound] | No significant calpain and caspase-12 activation | >50 µM | not effective in inducing non-apoptotic cell death | >50 µM |  |  | No significant calpain and caspase-12 activation | > 50 µM | inhibited proliferation of MCF-7 breast cancer cells in a dose- and time-dependent fashion | >50 µM |  | only a trend in inducing apoptosis | only a trend in increasing intracellular Ca^2+ levels |  |  |  |
| COc1ccc(-c2oc3c(OC)c(OC)c(OC)c(O)c3c(=O)c2OC)cc1OC [Compound C, 5-hydroxy-3,6,7,8,3′,4′-hexamethoxyflavone] | activation | 3.125 µM | induced death of MCF-7 breast cancer cells | 1.56 µM | confirmed apoptosis | induced apoptosis | activation | 2.5 µM | inhibited proliferation of MCF-7 breast cancer cells in a dose- and time-dependent fashion | 1.56 µM | induced an increase in the basal level of [Ca^2+]i |  |  |  |  |  |
| COc1ccc(-c2oc3c(OC)c(OC)c(OC)c(OC)c3c(=O)c2OC)cc1OC [D, 3,5,6,7,8,3,4-heptamethoxyflavone, reference compound] | No significant calpain and caspase-12 activation | >50 µM | not effective in inducing non-apoptotic cell death | >50 µM | confirmed apoptosis |  | No significant calpain and caspase-12 activation |  | inhibited proliferation of MCF-7 breast cancer cells in a dose- and time-dependent fashion | >50 µM |  |  | only a trend in increasing intracellular Ca^2+ levels | a trend in increasing the number of cells with activated calpain | low proapototic activity | > 50 µM |
